These results are taken from paper PMC12113707, “Microwave Assisted Synthesis of Antioxidant Dihydro-Pyrazole Hybrids as Possible Lipoxygenase Inhibitors” (Molecules, 2025).

Each structure is given as a SMILES string.

A word on the inhibition: it is how much of the control response was suppressed. Broadly, the IC50 is the concentration that inhibits the measured activity by half.

Data set [1] in a line: Experimental lipophilicity RM by reverse phase thin layer chromatography (RP-TLC). The class given is physicochemical. Conditions: methanol-water mobile phase. As to the method:
Lipophilicity is a main physicochemical parameter for bioactive molecules, linking solubility, ligand-target binding interactions, membrane permeability absorption, distribution, bioavailability, metabolism, elimination and toxicological effects (ADMET), playing an important role in biological activity. The experimental values of lipophilicity RM were determined by reverse phase thin layer chromatography. For the experimental determination of lipophilicity the hydrophilic-lipid phase system is a mixture of methanol- water (90/10%). The theoretical lipophilicity values are determined by the Bioloom program (http://biobyte.com/bb/prod/bioloom.html, accessed on 8 April 2024) (Table 1). According to the calculated clog P values, the most lipophilic compounds are 3c, 3d and 3f while the less lipophilic ones are compounds 5a and 5b.
Melting points were determined on a MEL-Temp II (Lab. Devices, Holliston, MA, USA). In vitro tests were carried out using a UV-Vis spectra and recorded on a Perkin-Elmer 554 double-beam spectrophotometer (Perkin-Elmer Corporation Ltd., Lane Beaconsfield, Bucks, UK). Infrared spectra (KBr pellets) were recorded with Perkin-Elmer 597 spectrophotometer (Perkin-Elmer Corporation Ltd., Lane Beaconsfield, Bucks, UK). The ^1H […] Magnetic Resonance (^1H-NMR) spectra were acquired on an Agilent 500/54 (DD2) at 500 MHz in CDCl3 using tetramethylsilane as an internal standard. Agilent 500/54 (DD2) ^13C NMR spectra were acquired at 125 MHz in CDCl3 solutions with tetramethylsilane serving as an internal reference. Coupling constants J are expressed in Hz, and chemical shifts are reported in ppm. Thermo Fisher Scientific Inc., Waltham, MA, USA, used MeOH as the solvent to calculate mass spectra using an LC-PDA-MS Thermo Finnigan system (LC Pump Plus, Autosampler, Surveyor PDA Plus Detector) interfaced with an ESI MSQ Plus (Thermo Finnigan). Thin-layer chromatography using 5554 F254 Silica gel/TLC cards (Merck and Fluka Chemie GmbH Buchs, Steinheim, Switzerland) was used to monitor the reaction progress. Silica gel 60 F254 plates with a diameter of 2 mm were utilized for preparative thin layer chromatography (prep TLC) by Merck KgaA (ICH078057). Merck (20 × 20 cm) plates were used for the experimental assessment of the lipophilicity using reverse phase thin-layer chromatography (RP-TLC) TLC-Silica gel 60 F254 DC Kieselgel.
In this experiment, TLC silica gel 60 F254 1.05715.0001 commercial glass plates from Merck were used. The plates were first immersed in a 5% v/v solution of liquid paraffin in petroleum ether and left for 90 s to become completely impregnated with the stable lipophilic phase. They were then activated by standing for 30 min in an oven at 40 °C and kept there until the time of use. A 70% v/v MeOH/H2O mixture was used as the mobile phase. The mobile phase was saturated with a few drops of liquid paraffin before being used. The spots of the compounds were placed on the plate at a distance of 2 cm from the edges of the plate and also from each other. The development of the spots on the plates was carried out in closed chromatography chambers where the atmosphere is saturated with the mobile phase at room temperature. At the end of development, the solvent-formed front was marked and the plates are dried at 80 °C for about 20–30 min. The appearance of the spots was made under an ultraviolet light lamp. The Rf values were the average of 5–6 measurements for each compound and assuming that the compounds will have been rotated to different positions on the plates. The RM values were calculated from the corresponding Rf values according to the equation [67].RM = log [(1/Rf) − 1](1)

Data set [2] in a line: Interaction with the stable free radical DPPH (reducing activity). Particulars: 517 nm. As to the method:
In general, the compounds present moderate to good antioxidant activity. It seems that the dibenzylacetones present satisfactory antioxidant activity compared to the hybrids at 60 min (1b, 1d and 1f).
The tested compounds (0.1 mM final concentration) dissolved in DMSO were incubated with a solution of DPPH in absolute ethanol in absence of light. The absorbance at 20 and 60 min at 517 nm was recorded at room temperature. NDGA was used as the reference compound.
(In general: The DPPH test is a chemical assay of radical scavenging.)

Data set [3] is described as follows: Inhibition of AAPH-induced linoleic acid peroxidation. Conditions: 37 °C, 234 nm. As to the method:
The ability of the compounds to inhibit AAPH-induced peroxidation of linoleic acid is another assay to investigate the antioxidant properties of the compounds. Azo compounds such as 2,2′-azobis dihydrochloride (2-amidinopropane) (AAPH) are capable of generating free radicals through spontaneous decomposition at 37 °C. The R- radicals react immediately with air-oxygen to produce peroxy radicals. AAPH was therefore used as the radical initiator and sodium linoleate as substrate subjected to peroxidation. Measurements were carried out at 234 nm using a UV/V is spectrophotometer. Dichalcone 1i substituted with two phenyl groups presents the lowest lipophilicity. […] Therefore, hydrophilic substituents offer an increase in activity.
The interaction of free radicals with cell membrane lipids induces free radical chain reactions, a process called lipid peroxidation. 930 μL of a phosphate buffer solution (0.05 M, pH = 7.4), 10 μL of the sodium linolate solution (16 mM in a buffer solution of Tris-HCl pH = 9) and 10 μL of the tested compounds (stock solutions 100 μΜ) were mixed and the oxidative procedure started after the addition of 50 μL AAPH at 37 °C under air conditions. The conjugated diene’s absorbance was measured at 234 nm at a thermostable spectrophotometer (37 °C) according to previous publication.

For data set [4], the target named is T1, soybean lipoxygenase (SLOX-1) (Glycine max, UniProt P08170).
T1 construct: 200 μL of plant-derived lipoxygenase solution (1:9 × 10^−4 w/v, in saline); purchased Sigma Chemical, Co; host or cells: soybean (plant-derived)
T1 sequence (P08170 1-839): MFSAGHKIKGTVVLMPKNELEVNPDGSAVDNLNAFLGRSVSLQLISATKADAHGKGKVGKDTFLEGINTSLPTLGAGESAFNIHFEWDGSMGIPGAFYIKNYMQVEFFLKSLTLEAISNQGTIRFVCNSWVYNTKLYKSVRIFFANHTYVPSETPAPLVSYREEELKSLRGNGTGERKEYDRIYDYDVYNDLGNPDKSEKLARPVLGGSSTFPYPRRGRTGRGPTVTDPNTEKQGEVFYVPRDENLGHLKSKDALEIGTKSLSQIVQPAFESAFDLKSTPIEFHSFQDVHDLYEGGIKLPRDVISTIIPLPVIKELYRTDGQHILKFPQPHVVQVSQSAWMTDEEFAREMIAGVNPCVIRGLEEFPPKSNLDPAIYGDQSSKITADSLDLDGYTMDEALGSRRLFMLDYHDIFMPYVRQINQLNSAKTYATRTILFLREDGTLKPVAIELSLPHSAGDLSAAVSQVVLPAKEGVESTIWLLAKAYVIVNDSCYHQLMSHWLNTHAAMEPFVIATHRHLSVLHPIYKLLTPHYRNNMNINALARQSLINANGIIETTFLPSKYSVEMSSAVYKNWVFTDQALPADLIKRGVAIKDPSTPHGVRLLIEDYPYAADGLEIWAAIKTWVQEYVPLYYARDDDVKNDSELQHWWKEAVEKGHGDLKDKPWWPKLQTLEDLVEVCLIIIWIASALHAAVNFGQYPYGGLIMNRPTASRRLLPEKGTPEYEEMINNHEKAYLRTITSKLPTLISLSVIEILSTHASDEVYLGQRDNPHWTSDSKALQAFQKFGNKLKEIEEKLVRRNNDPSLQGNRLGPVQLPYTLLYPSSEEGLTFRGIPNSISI
Kind of data set: Inhibition of soybean lipoxygenase in vitro. The class given is biochemical. Particulars: pH 9, sodium linoleate substrate; for inhibition at 100 µM: read-out: LOX% Inhibition, 100 μM (±SD); for IC50: read-out: LOX IC50 (μM) (±SD). Here is the method: Soybean lipoxygenase SLOX-1 at pH 9 is used in vitro. During this assay linoleic acid sodium salt is converted to the corresponding 13-hydroperoxide. The reaction is recorded photometrically at 234 nm using the UV-based enzyme assay. […] It is known that soybean LOX inhibitory activity induced by NSAIDs is qualitatively quite similar to the inhibition observed on the rat mast cells LOX and this assay may be used as a qualitative or semi-quantitative screen for such activity.
To a quartz cell, add 790 μL of Tris-HCl pH = 9.0 buffer, 200 μL of plant-derived lipoxygenase solution (1:9 × 10^−4 w/v, in saline), 10 μL of the test compound solution and 100 μL of sodium linoleate solution (3 mM concentration). The absorbance was measured at 234 nm, where the change in absorbance due to the conversion of linoleic acid to […] was recorded. A solution of 790 μL of Tris-HCl pH = 9.0 buffer, 200 μL of a plant-derived lipoxygenase solution (1:9 × 10^−4 w/v, in saline), 10 μL of DMSO and 100 μL of sodium linoleate solution (3 mM concentration) was used as a control.

Take `O=C(/C=C/c1ccc(C(F)(F)F)cc1)/C=C/c1ccc(C(F)(F)F)cc1` [Compound 1f, (1E,4E)-1,5-bis(4-(trifluoromethyl)phenyl)-1,4-pentadien-3-one]: in data set [1], the “RM ± SD” value worked out at 0.57 ± 0.031. In data set [2], the “RA%, 100 μM, 20 min (±SD)” value is recorded as 13 ± 0.8% and the “RA%, 100 μM, 60 min (±SD)” value is 26 ± 0.9%. In data set [3], the “AAPH% Inhibition, 100 μM (±SD)” value is listed as 32 ± 1.4%. Besides, the inhibition at 100 µM in data set [4] was 24 ± 1.4%.
With `Fc1ccc(/C=C/C2=NN(c3ccc(Br)cc3)C(c3ccc(F)cc3)C2)cc1` (stereo not drawn) [Compound 3b], the “RM ± SD” value in data set [1] was determined as 1.03 ± 0.057. Also, in data set [2], the “RA%, 100 μM, 20 min (±SD)” value is 2 ± 0.1% and the “RA%, 100 μM, 60 min (±SD)” value is on record as 6 ± 0.6%. For the same compound, in data set [3], the “AAPH% Inhibition, 100 μM (±SD)” value is 63 ± 2.6%. The inhibition at 100 µM in data set [4] was 17 ± 0.8%.
On to `CC(=O)N1N=C(/C=C/c2ccc(Cl)cc2)CC1c1ccc(Cl)cc1` (stereo not drawn) [Compound 6d, (E)-5-(4-chlorophenyl)-3-(4-chlorostyryl)-4,5-dihydro-1-H-pyrazol-1-ethan-1-one], for which the “RM ± SD” value in data set [1] is given as 0.65 ± 0.048. In addition, the “RA%, 100 μM, 60 min (±SD)” value in data set [2] is reported as 8 ± 0.7%. The “AAPH% Inhibition, 100 μM (±SD)” value in data set [3] was determined as 67 ± 0.4%. For the same compound, the inhibition at 100 µM in data set [4] was 42 ± 2.7%.
Consider `N#Cc1ccc(N2N=C(/C=C/c3ccc(Cl)cc3)CC2c2ccc(Cl)cc2)cc1` (stereo not drawn) [Compound 4d, (E)-4-(5-(4-chlorophenyl)-3-(4-chlorostyryl)-4,5-dihydro-1H-pyrazol-1-yl)-benzonitrile], for which the “RM ± SD” value in data set [1] was determined as 0.85 ± 0.068. In data set [2], the “RA%, 100 μM, 20 min (±SD)” value amounted to 23 ± 0.3% and the “RA%, 100 μM, 60 min (±SD)” value is listed as 2 ± 0.1%. For the same compound, in data set [3], the “AAPH% Inhibition, 100 μM (±SD)” value came to 51 ± 0.2%. Moreover, in data set [4], the IC50 worked out at 85 µM.
`Clc1ccc(/C=C/C2=NN(c3ccc(Br)cc3)C(c3ccc(Cl)cc3)C2)cc1` (stereo not drawn) [Compound 3d, (E)-1-(4-bromo-phenyl)-5-(4-chloro-phenyl)-3-(4-chlorostyryl)-4,5-dihydro-1H-pyrazole]: in data set [1], the “RM ± SD” value is listed as 1.39 ± 0.069. The “RA%, 100 μM, 20 min (±SD)” value in data set [2] is reported as 6 ± 0.5%. The “AAPH% Inhibition, 100 μM (±SD)” value in data set [3] came out at 52 ± 2.5%. Also, the inhibition at 100 µM in data set [4] was 11 ± 0.8%.
For the compound `NC(=O)N1N=C(/C=C/c2ccc(Cl)cc2)CC1c1ccc(Cl)cc1` (stereo not drawn) [Compound 5d, (E)-5-(4-chlorophenyl)-3-(4-chlorostyryl)-4,5-dihydro-1H-pyrazole-1-carboxamide], in data set [1], the “RM ± SD” value is 0.50 ± 0.043. Also, the “RA%, 100 μM, 60 min (±SD)” value in data set [2] was 34 ± 0.5%. In data set [3], the “AAPH% Inhibition, 100 μM (±SD)” value worked out at 33 ± 0.5%. The IC50 in data set [4] amounted to 80 µM.
`CC(=O)N1N=C(/C=C/c2ccccc2)CC1c1ccccc1` (stereo not drawn) [Compound 6a, (E)-5-phenyl-3-styryl-4,5-dihydro-1-H-pyrazol-1-ethan-1-one]: the “RM ± SD” value in data set [1] was determined as 0.17 ± 0.014. The “RA%, 100 μM, 20 min (±SD)” value in data set [2] was 11 ± 0.6%. Also, the “AAPH% Inhibition, 100 μM (±SD)” value in data set [3] worked out at 22 ± 1%. The inhibition at 100 µM in data set [4] amounted to 24 ± 0.8%.
With `O=C(/C=C/c1ccccc1)/C=C/c1ccccc1` [Compound 1a, (1E,4E)-1,5-diphenyl-1,4-pentadien-3-one], the “RM ± SD” value in data set [1] was 0.10 ± 0.003. For the same compound, in data set [2], the “RA%, 100 μM, 20 min (±SD)” value was found to be 5 ± 0.5% and the “RA%, 100 μM, 60 min (±SD)” value turned out to be 10 ± 0.5%. In data set [3], the “AAPH% Inhibition, 100 μM (±SD)” value was determined as 69 ± 0.3%. Also, the IC50 in data set [4] was 10 µM.
The like results for `CC(=O)N1N=C(/C=C/c2ccc(N(C)C)cc2)CC1c1ccc(N(C)C)cc1` (stereo not drawn) [Compound 6e, (E)-5-(4-dimethylaminophenyl)-3-(4-dimethylaminostyryl)-4,5-dihydro-1-H-pyrazol-1-ethan-1-one] were, in that order, 0.47 ± 0.036, 7 ± 0.5%, 12 ± 1%, 56 ± 0.3% and 40 µM.
For `Clc1ccc(/C=C/C2=NN(c3ccccc3)C(c3ccc(Cl)cc3)C2)cc1` (stereo not drawn) [Compound 2d], in data set [1], the “RM ± SD” value is recorded as 1.07 ± 0.067. Besides, in data set [2], the “RA%, 100 μM, 20 min (±SD)” value was found to be 6 ± 0.4%. In data set [3], the “AAPH% Inhibition, 100 μM (±SD)” value worked out at 75 ± 0.1%. Besides, the IC50 in data set [4] amounted to 2.5 µM.
